{"source": "ChEMBL document CHEMBL1201862", "about": "“PubChem BioAssay data set” (2004)", "key": {"[1]": {"test": "cAMP pathway inhibition in counterscreen cell line – TR-FRET cAMP detection, counter-screen for MC4R biased antagonist project, dose response (AID 602305);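 also: U2OS cells stimulated with forskolin near its EC80 as the cAMP inducer; potency is for inhibition of forskolin-stimulated cAMP signaling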", "type": "functional, cell-based"}, "Melanocortin receptor 4": {"target": "Melanocortin receptor 4 (Homo sapiens, UniProt P32245)", "sequence (P32245 whole entry)": "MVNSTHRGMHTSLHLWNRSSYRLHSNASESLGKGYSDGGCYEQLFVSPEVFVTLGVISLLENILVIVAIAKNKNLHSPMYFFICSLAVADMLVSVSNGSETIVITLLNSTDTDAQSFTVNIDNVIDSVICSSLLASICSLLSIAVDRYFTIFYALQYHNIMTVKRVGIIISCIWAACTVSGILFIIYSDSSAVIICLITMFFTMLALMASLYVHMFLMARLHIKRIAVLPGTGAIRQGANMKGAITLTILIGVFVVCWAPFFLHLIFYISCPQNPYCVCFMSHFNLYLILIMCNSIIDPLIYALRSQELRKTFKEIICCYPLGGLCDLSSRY", "test": "inhibitors of MC4R cAMP signaling – cell-based, TR-FRET, biased antagonists, dose response (AID 602298);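 also: antagonist potency against agonist-stimulated cAMP production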", "type": "functional"}, "[2]": {"target": "Melanin-concentrating hormone receptor 1 (Homo sapiens, UniProt Q99705)", "sequence (Q99705 whole entry)": "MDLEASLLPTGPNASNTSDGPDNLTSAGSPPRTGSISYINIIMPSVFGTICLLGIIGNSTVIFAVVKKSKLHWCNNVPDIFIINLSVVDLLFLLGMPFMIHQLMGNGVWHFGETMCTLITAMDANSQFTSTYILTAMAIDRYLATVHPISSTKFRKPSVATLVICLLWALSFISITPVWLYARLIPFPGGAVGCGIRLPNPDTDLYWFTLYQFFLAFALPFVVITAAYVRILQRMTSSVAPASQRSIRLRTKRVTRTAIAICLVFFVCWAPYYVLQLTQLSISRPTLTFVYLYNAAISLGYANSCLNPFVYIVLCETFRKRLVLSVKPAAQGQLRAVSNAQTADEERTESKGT", "test": "Late-stage fluorescence-based counterscreen for antagonists of the G-protein coupled receptor 7 (GPR7): cell-based dose response assay to identify antagonists of the melanin-concentrating hormone receptor 1 (MCHR1) Set 5.", "type": "functional"}, "[3]": {"target": "Neuropeptides B/W receptor type 1 (Homo sapiens, UniProt P48145)", "sequence (P48145 whole entry)": "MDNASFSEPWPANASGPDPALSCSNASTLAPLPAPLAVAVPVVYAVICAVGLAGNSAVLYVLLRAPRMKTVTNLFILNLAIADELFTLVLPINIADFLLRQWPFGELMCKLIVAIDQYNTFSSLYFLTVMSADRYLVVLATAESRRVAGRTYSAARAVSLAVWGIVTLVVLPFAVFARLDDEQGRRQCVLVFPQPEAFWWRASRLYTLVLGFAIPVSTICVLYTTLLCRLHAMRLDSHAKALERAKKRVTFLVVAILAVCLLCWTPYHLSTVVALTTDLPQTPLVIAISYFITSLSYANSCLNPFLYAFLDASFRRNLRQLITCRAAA", "test": "human NPBW1 receptor blockade, IC50 – cell-based, fluorescence, dose response, set 5, late-stage follow-up (AID 588566)", "type": "functional"}, "[4]": {"test": "Late-stage results from the probe development effort to identify antagonists of the G-protein coupled receptor 7 (GPR7): luminescence-based cell-based dose response counterscreen assay to determine cytotoxicity of antagonist compounds Set 3.", "type": "functional"}, "[5]": {"test": "NIH3T3 cell viability loss – ATP luminescence, mouse fibroblasts, counter-screen, dose response (AID 2010);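 also: cells exposed to compound for about 90 hours before reading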", "type": "functional, cell-based"}, "[6]": {"test": "Trypanosoma cruzi growth suppression in host cells – NIH3T3 host cells, beta-gal luminescence, confirmation (AID 2044);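 also: luminescent beta-galactosidase reporter signal from transgenic T. cruzi replicating inside host cells; inhibitors lower the luminescence signal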", "type": "functional, cell-based"}, "[7]": {"test": "microbe, parasite or virus in culture", "type": "functional", "conditions": "Mycobacterium tuberculosis"}, "[8]": {"target": "T1, High affinity choline transporter 1 (Homo sapiens, UniProt Q9GZV3)", "T1 sequence (Q9GZV3 whole entry)": "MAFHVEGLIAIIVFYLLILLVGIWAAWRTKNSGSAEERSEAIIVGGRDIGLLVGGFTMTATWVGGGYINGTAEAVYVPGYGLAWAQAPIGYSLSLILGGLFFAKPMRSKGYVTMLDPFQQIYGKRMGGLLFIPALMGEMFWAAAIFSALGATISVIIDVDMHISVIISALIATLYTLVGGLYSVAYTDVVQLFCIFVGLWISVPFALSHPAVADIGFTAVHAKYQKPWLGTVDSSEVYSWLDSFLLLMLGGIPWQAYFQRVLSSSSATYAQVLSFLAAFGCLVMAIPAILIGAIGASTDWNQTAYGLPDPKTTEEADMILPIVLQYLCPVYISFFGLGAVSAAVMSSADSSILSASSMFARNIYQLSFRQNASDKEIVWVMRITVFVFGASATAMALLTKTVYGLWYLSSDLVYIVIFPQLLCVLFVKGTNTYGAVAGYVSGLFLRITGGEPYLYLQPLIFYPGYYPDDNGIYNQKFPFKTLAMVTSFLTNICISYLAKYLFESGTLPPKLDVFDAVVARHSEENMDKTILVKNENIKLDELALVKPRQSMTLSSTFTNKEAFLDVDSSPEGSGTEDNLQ", "test": "human choline transporter potentiators, potency – cell-based, 10-point CRC, membrane potential dye, dose response (AID 602376)", "type": "functional"}, "[9]": {"target": "G protein-coupled receptor kinase 5 (Homo sapiens, UniProt P34947)", "sequence (P34947 whole entry)": "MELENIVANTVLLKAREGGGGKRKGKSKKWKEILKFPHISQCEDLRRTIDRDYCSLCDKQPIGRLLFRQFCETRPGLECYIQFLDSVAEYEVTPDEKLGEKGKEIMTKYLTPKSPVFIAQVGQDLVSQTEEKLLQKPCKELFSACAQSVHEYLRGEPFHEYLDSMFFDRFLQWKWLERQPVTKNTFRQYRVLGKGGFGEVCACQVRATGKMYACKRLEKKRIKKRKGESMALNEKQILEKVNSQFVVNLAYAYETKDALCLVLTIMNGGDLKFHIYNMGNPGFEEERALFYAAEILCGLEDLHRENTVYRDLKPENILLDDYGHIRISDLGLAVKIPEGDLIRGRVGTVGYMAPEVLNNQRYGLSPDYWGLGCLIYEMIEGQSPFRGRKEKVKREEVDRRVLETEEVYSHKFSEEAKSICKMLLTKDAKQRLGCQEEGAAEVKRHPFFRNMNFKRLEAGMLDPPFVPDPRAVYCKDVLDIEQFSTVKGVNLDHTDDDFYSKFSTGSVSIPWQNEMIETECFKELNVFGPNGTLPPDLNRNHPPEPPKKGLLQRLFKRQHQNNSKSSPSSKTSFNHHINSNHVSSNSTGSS", "test": "Navigating the Kinome. Panel member name: GPRK5", "type": "functional"}, "[10]": {"target": "Protein kinase C gamma type (Homo sapiens, UniProt P05129)", "type": "functional"}, "[11]": {"target": "Protein kinase C zeta type (Homo sapiens, UniProt Q05513)", "sequence (Q05513 whole entry)": "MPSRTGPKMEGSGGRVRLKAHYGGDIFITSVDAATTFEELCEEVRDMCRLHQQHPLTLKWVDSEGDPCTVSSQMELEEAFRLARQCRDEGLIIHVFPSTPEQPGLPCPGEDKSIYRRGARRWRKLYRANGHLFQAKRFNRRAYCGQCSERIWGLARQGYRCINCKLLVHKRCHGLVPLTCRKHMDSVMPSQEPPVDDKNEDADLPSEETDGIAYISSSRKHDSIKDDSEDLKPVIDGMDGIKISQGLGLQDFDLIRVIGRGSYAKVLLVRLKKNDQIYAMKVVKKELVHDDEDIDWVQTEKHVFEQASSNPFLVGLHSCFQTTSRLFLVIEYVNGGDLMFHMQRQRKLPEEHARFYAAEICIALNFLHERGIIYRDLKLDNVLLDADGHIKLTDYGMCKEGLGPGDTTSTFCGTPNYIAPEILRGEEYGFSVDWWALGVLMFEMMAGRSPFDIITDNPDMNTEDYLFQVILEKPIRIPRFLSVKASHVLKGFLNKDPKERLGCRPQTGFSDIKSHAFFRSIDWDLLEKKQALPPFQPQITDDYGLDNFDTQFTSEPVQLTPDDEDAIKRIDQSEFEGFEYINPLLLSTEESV", "type": "functional"}, "[12]": {"target": "MAP kinase-activated protein kinase 3 (Homo sapiens, UniProt Q16644)", "sequence (Q16644 whole entry)": "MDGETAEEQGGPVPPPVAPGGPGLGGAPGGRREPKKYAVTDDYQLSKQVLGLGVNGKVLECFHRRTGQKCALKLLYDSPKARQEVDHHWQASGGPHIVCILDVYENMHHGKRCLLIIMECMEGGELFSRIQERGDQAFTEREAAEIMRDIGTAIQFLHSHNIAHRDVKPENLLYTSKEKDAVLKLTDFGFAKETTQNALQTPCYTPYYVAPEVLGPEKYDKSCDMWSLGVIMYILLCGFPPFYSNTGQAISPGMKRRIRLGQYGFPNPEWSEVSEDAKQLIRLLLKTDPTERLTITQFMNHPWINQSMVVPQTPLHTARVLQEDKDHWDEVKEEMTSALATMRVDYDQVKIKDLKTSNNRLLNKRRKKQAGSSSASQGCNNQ", "type": "functional"}}, "note": "Active and inactive are the calls of the source.", "data": [{"smiles": "CC(=O)Oc1ccc2nc(-c3ccco3)oc(=O)c2c1", "values": [{"measurement": "IC50", "setting": "[1]", "result": "> 64.6 µM (inactive)"}, {"measurement": "IC50", "setting": "Melanocortin receptor 4", "result": "> 64.6 µM (inactive)"}]}, {"smiles": "CS(=O)(=O)c1ccc(Oc2c(Cl)cnn(Cc3cccc4ccccc34)c2=O)cc1", "values": [{"measurement": "IC50", "setting": "[2]", "result": "2.46 µM (active)"}, {"measurement": "IC50", "setting": "[3]", "result": "1.13 µM (active)"}]}, {"smiles": "COc1ccc(Oc2c(Cl)cnn(C3c4ccccc4-c4ccccc43)c2=O)cc1", "values": [{"measurement": "CC50", "setting": "[4]", "result": "> 20 µM (inactive)"}]}, {"smiles": "Cc1ccc(-n2c(C)cc(/C=N/NC(N)=S)c2C)cc1", "values": [{"measurement": "EC50", "setting": "[5]", "result": "> 60 µM (inconclusive)"}, {"measurement": "EC50", "setting": "[6]", "result": "0.315 µM (active)"}, {"measurement": "CC50", "setting": "[7]", "result": "> 40 µM (active)"}, {"measurement": "EC50", "setting": "[8]", "result": "9.06 µM (active)"}]}, {"smiles": "CCN(CCO)CCCOc1ccc2c(Nc3cc(CC(=O)Nc4cccc(F)c4)[nH]n3)ncnc2c1", "note": "[DEFOSBARASERTIB]", "values": [{"measurement": "Ki", "setting": "[9]", "result": "> 3.98 µM (inactive)"}, {"measurement": "Ki", "setting": "[10]", "result": "> 7.94 µM (inactive)"}, {"measurement": "Ki", "setting": "[11]", "result": "> 7.94 µM (inactive)"}, {"measurement": "Ki", "setting": "[12]", "result": "> 10 µM (inactive)"}]}]}
